± gives the standard deviation of the averaged measurements.
How the values were obtained:
Assay in all cases: level (log10 ratio to DMSO vehicle control); higher = higher biomarker level / cell amount than vehicle control
[1] = compound: O=C(O)C(F)(F)C(F)(F)C(F)(F)OC(F)(F)F [Perfluoro(4-methoxybutanoic) acid] (in DMSO)
Method: (§1)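 BioMAP Diversity Plus panel of 12 human primary cell co-culture systems (3C, 4H, LPS, SAg, BT, BF4T, BE3C, CASM3C, HDF3CGF, KF3CT, MyoF, Mphg). Compounds were added 1 h before stimulation and left for 24 h (MyoF 48 h; BT 72 h for soluble read-outs or 6 d for IgG). Biomarkers were read by ELISA, cytotoxicity by SRB, PBMC viability and proliferation by Alamar Blue. Each well value was divided by the mean of 8 DMSO control wells on the same plate and log10 transformed; duplicate blinded samples were tested at 4 concentrations.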

[2] = compound: CO[Si](C)(CCC(F)(F)C(F)(F)C(F)(F)C(F)(F)C(F)(F)C(F)(F)F)OC [Dimethoxymethyl((perfluorohexyl)ethyl)silane] (in DMSO)
Method: as §1

[3] = compound: O=C(O)C=C(C(F)(F)F)C(F)(F)F [3,3-Bis(trifluoromethyl)-2-propenoic acid] (in DMSO)
Method: as §1

[4] = compound: CN(C(=O)C(F)(F)C(F)(F)C(F)(F)F)[Si](C)(C)C [N-Methyl-N-trimethylsilylheptafluorobutyramide] (in DMSO)
Method: as §1

[5] = compound: O=S(=O)(O)CCC(F)(F)C(F)(F)C(F)(F)C(F)(F)C(F)(F)C(F)(F)C(F)(F)C(F)(F)F [8:2 Fluorotelomer sulfonic acid] (in DMSO)
Method: as §1

[6] = compound: OCC(F)(F)C(F)(F)C(F)(F)C(F)(F)C(F)(F)C(F)(F)CO [1H,1H,8H,8H-Perfluorooctane-1,8-diol] (in DMSO)
Method: as §1

[7] = compound: O=C(O)C(F)(OC(F)(F)C(F)(F)C(F)(F)F)C(F)(F)F [Ammonium perfluoro-2-methyl-3-oxahexanoate] (in Water)
Method: as §1

Test System	level (log10) ([1]; 6700 nM)	level (log10) ([1]; 20000 nM)	level (log10) ([1]; 60000 nM)	level (log10) ([2]; 6700 nM)	level (log10) ([2]; 20000 nM)	level (log10) ([3]; 6700 nM)	level (log10) ([3]; 20000 nM)	level (log10) ([3]; 60000 nM)	level (log10) ([4]; 6700 nM)	level (log10) ([4]; 20000 nM)	level (log10) ([4]; 60000 nM)	level (log10) ([5]; 6700 nM)	level (log10) ([5]; 20000 nM)	level (log10) ([5]; 60000 nM)	level (log10) ([6]; 6700 nM)	level (log10) ([6]; 20000 nM)	level (log10) ([6]; 60000 nM)	level (log10) ([7]; 6700 nM)	level (log10) ([7]; 20000 nM)	level (log10) ([7]; 60000 nM)
LPS:CXCL8/IL-8	-0.0075 ± 0.05	0.0075 ± 0.049	0.0545 ± 0.005	0.0325 ± 0.03	0.065 ± 0.0071	-0.052 ± 0.0099	-0.047 ± 0.037	-0.007 ± 0.069	0.008 ± 0.0028	0.0245 ± 0.018	0.016 ± 0.052	0.01 ± 0.11	0.0485 ± 0.012	-0.053 ± 0.17	-0.0075 ± 0.011	-0.0305 ± 0.0064	-0.0125 ± 0.021	0.023 ± 0.031	0.0895 ± 0.016	0.131 ± 0.017
LPS:IL-1alpha	-0.023 ± 0.013	-0.0195 ± 0.04	0.0005 ± 0.09	0.005 ± 0.03	0.0235 ± 0.0092	-0.0355 ± 0.015	-0.0495 ± 0.023	-0.095 ± 0.02	-0.004 ± 0.041	0.017 ± 0.0071	0.02 ± 0.0028	-0.0195 ± 0.03	-0.016 ± 0.037	-0.283 ± 0.19	-0.0355 ± 0.049	-0.064 ± 0.016	-0.004 ± 0.017	0.0325 ± 0.04	0.0475 ± 0.015	0.019 ± 0.062
LPS:M-CSF	-0.014 ± 0.014	-0.024	-0.008 ± 0.011	-0.022 ± 0.017	0.025 ± 0.041	-0.071 ± 0.082	-0.155 ± 0.13	-0.203 ± 0.13	-0.0075 ± 0.0092	-0.0135 ± 0.012	-0.0045 ± 0.079	-0.016 ± 0.041	0.0075 ± 0.054	-0.0795 ± 0.088	-0.0285 ± 0.019	-0.025 ± 0.017	-0.013 ± 0.048	-0.02 ± 0.024	-0.009 ± 0.016	-0.0045 ± 0.005
LPS:SRB	-0.0085 ± 0.00071	-0.008 ± 0.0071	-0.0085 ± 0.0035	-0.0025 ± 0.0064	0.003 ± 0.0085	-0.006 ± 0.0071	-0.024 ± 0.0085	-0.044 ± 0.0057	0.0045 ± 0.012	0.0045 ± 0.0078	0 ± 0.0028	-0.0085 ± 0.005	-0.0095 ± 0.019	-0.02 ± 0.018	0.0005 ± 0.0092	-0.003 ± 0.0014	-0.0035 ± 0.023	-0.009 ± 0.0028	-0.0075 ± 0.00071	-0.009 ± 0.0014
LPS:sPGE2	-0.0115 ± 0.026	0.01 ± 0.047	-0.012 ± 0.017	0 ± 0.042	-0.0145 ± 0.035	-0.0855 ± 0.016	-0.09 ± 0.021	-0.106 ± 0.016	0.0035 ± 0.011	0.0095 ± 0.044	-0.023 ± 0.057	-0.0245 ± 0.0035	-0.078 ± 0.047	-0.293 ± 0.017	-0.0255 ± 0.012	0.022 ± 0.0057	-0.0015 ± 0.016	0.093 ± 0.061	0.0575 ± 0.039	0.0765 ± 0.018
LPS:sTNF-alpha	-0.017 ± 0.0071	-0.0055 ± 0.005	-0.0115 ± 0.00071	-0.0025 ± 0.0078	-0.0045 ± 0.0078	-0.0305 ± 0.042	0.0195 ± 0.023	-0.0025 ± 0.035	-0.004 ± 0.0042	-0.002 ± 0.011	-0.0065 ± 0.015	0.0095 ± 0.011	-0.006 ± 0.0099	-0.212 ± 0.12	-0.123 ± 0.074	-0.145 ± 0.041	-0.146 ± 0.018	-0.068 ± 0.021	-0.0375 ± 0.043	-0.0225 ± 0.033
SAg:CCL2/MCP-1	-0.0325 ± 0.022	-0.0225 ± 0.012	0.017 ± 0.024	-0.0215 ± 0.00071	-0.0145 ± 0.0064	-0.0145 ± 0.00071	-0.0535 ± 0.0078	-0.079 ± 0.042	-0.0135 ± 0.0078	-0.012 ± 0.018	-0.0005 ± 0.026	-0.0035 ± 0.019	0 ± 0.0099	-0.0025 ± 0.0078	-0.0075 ± 0.00071	-0.015 ± 0.0071	-0.0085 ± 0.00071	-0.0245 ± 0.04	0.004 ± 0.017	0.0305 ± 0.059
SAg:CD38	-0.0375 ± 0.016	-0.0225 ± 0.005	-0.0195 ± 0.0035	0.0075 ± 0.018	0.014 ± 0.0028	0.0025 ± 0.013	-0.019 ± 0.017	-0.073 ± 0.0028	-0.0015 ± 0.019	-0.009 ± 0.0014	0.0115 ± 0.023	-0.0175 ± 0.04	-0.02 ± 0.034	-0.0595 ± 0.053	-0.0105 ± 0.011	-0.003 ± 0.02	-0.013 ± 0.0028	0.003 ± 0.011	0.008 ± 0.0085	-0.0055 ± 0.019
SAg:CD40	-0.029 ± 0.023	-0.034 ± 0.045	-0.034 ± 0.052	-0.0095 ± 0.0078	-0.022 ± 0.0042	0.0205 ± 0.005	-0.01 ± 0.017	-0.094 ± 0.038	-0.0185 ± 0.059	-0.009 ± 0.0042	-0.0075 ± 0.00071	-0.013 ± 0.051	-0.0215 ± 0.021	-0.071 ± 0.051	-0.024 ± 0.05	-0.0115 ± 0.064	-0.0525 ± 0.043	-0.019 ± 0.013	-0.017 ± 0.0014	-0.0555 ± 0.077
SAg:CD62E/E-Selectin	-0.01 ± 0.0028	-0.0145 ± 0.037	-0.0125 ± 0.037	-0.0185 ± 0.019	0.0235 ± 0.0035	-0.096 ± 0.0071	-0.192 ± 0.032	-0.459 ± 0.11	-0.017 ± 0.0085	-0.017 ± 0.017	-0.0225 ± 0.021	0.0085 ± 0.042	0.0465 ± 0.013	0.109 ± 0.0042	0.0005 ± 0.00071	-0.026 ± 0.0028	-0.016 ± 0.0042	0.036 ± 0.0014	0.022 ± 0.013	0.057 ± 0.0028
SAg:CD69	0.027 ± 0.076	0.0345 ± 0.066	0.045 ± 0.086	-0.032 ± 0.033	-0.0115 ± 0.011	-0.0145 ± 0.013	-0.0615 ± 0.0092	-0.171 ± 0.0014	-0.024 ± 0.0014	0.0015 ± 0.0078	-0.0025 ± 0.015	-0.025 ± 0.057	-0.0205 ± 0.04	-0.043 ± 0.075	-0.022 ± 0.031	-0.002 ± 0.0071	-0.0145 ± 0.015	-0.046 ± 0.0071	-0.0265 ± 0.019	-0.0205 ± 0.005
SAg:CXCL8/IL-8	0.007 ± 0.0085	0.005 ± 0.017	0.01 ± 0.034	-0.0085 ± 0.012	0.0145 ± 0.018	-0.0225 ± 0.025	-0.101 ± 0.023	-0.227 ± 0.084	-0.0015 ± 0.018	-0.0385 ± 0.019	-0.007 ± 0.035	-0.0075 ± 0.076	-0.009 ± 0.014	0.071 ± 0.044	-0.0205 ± 0.04	-0.0245 ± 0.019	0.0095 ± 0.035	0.103 ± 0.0085	0.099 ± 0.0085	0.167 ± 0.047
SAg:CXCL9/MIG	-0.0025 ± 0.00071	-0.0005 ± 0.0092	0.011 ± 0.0028	0.0075 ± 0.0021	-0.0035 ± 0.0035	-0.0065 ± 0.012	-0.017 ± 0.0099	0.006 ± 0.0071	0.007 ± 0.0057	-0.009 ± 0.0014	-0.0135 ± 0.0078	0.0005 ± 0.018	-0.008 ± 0.0028	0.001 ± 0.0057	-0.0055 ± 0.0021	0.0035 ± 0.0064	0.02 ± 0.0085	-0.006 ± 0.0085	0.001 ± 0.014	0.001 ± 0.028
SAg:PBMC Cytotoxicity	0.046 ± 0.038	-0.007 ± 0.024	0.019 ± 0.0028	-0.0045 ± 0.012	0.019 ± 0.0057	-0.01 ± 0.0028	-0.021 ± 0.016	0.002 ± 0.03	-0.0155 ± 0.00071	0.011 ± 0.014	0.011 ± 0.025	-0.0125 ± 0.015	0 ± 0.0042	0.0075 ± 0.0021	-0.0045 ± 0.03	0.036 ± 0.062	0.0305 ± 0.033	-0.011 ± 0.013	-0.024 ± 0.013	-0.0035 ± 0.0064
SAg:Proliferation	-0.0095 ± 0.0021	0 ± 0.018	-0.009 ± 0.0014	0.051 ± 0.048	-0.004 ± 0.13	0.004 ± 0.0085	-0.0715 ± 0.022	-0.462 ± 0.032	0.0395 ± 0.015	0.0565 ± 0.028	0.0635 ± 0.088	-0.02 ± 0.054	-0.0085 ± 0.011	-0.0735 ± 0.0035	-0.0035 ± 0.033	0 ± 0.025	-0.0055 ± 0.039	-0.0005 ± 0.028	-0.043 ± 0.028	-0.0265 ± 0.049
SAg:SRB	-0.0145 ± 0.0078	-0.023 ± 0.0099	-0.017 ± 0.021	-0.0125 ± 0.013	0.0045 ± 0.0035	0.0025 ± 0.0021	-0.006 ± 0.0085	-0.0275 ± 0.005	0.0055 ± 0.013	0.013 ± 0.0042	0.008 ± 0.0099	-0.0075 ± 0.0035	-0.0095 ± 0.0035	-0.0335 ± 0.011	0.009 ± 0.0085	0.0045 ± 0.005	0.0025 ± 0.021	-0.019 ± 0.0042	-0.01 ± 0.0014	-0.0285 ± 0.0021

Source: the supplement of paper PMC10331698
